{"source": "the NIST ThermoML archive (doi:10.1021/je7003963)", "experiment": "mn = molality of the nth substance listed, in mol/kg", "settings": "293.15 K; for speed of sound / mass density: 101 kPa, Liquid; for speed of sound: Sing-around technique in a fixed-path interferometer; for mass density: Vibrating tube method", "note": "± gives the expanded uncertainty stated by the source.", "data": [{"compound": "CN1CCN(CCCN2c3ccccc3Sc3ccc(C(F)(F)F)cc32)CC1.Cl.Cl", "note": "[trifluoperazine dihydrochloride] + O", "values": [{"measurement": "surface tension liquid-gas", "setting": "m1 = 0.003", "result": "58.1 ± 2", "unit": "mN/m"}, {"measurement": "surface tension liquid-gas", "setting": "m1 = 0.004", "result": "55.1 ± 1.9", "unit": "mN/m"}, {"measurement": "surface tension liquid-gas", "setting": "m1 = 0.005", "result": "51.4 ± 1.8", "unit": "mN/m"}, {"measurement": "surface tension liquid-gas", "setting": "m1 = 0.006", "result": "51.1 ± 1.8", "unit": "mN/m"}, {"measurement": "surface tension liquid-gas", "setting": "m1 = 0.007", "result": "49.6 ± 1.7", "unit": "mN/m"}, {"measurement": "surface tension liquid-gas", "setting": "m1 = 0.008", "result": "47.7 ± 1.6", "unit": "mN/m"}, {"measurement": "surface tension liquid-gas", "setting": "m1 = 0.009", "result": "47.7 ± 1.6", "unit": "mN/m"}, {"measurement": "surface tension liquid-gas", "setting": "m1 = 0.01", "result": "46.5 ± 1.6", "unit": "mN/m"}, {"measurement": "surface tension liquid-gas", "setting": "m1 = 0.025", "result": "46 ± 1.6", "unit": "mN/m"}, {"measurement": "surface tension liquid-gas", "setting": "m1 = 0.05", "result": "46.5 ± 1.6", "unit": "mN/m"}, {"measurement": "surface tension liquid-gas", "setting": "m1 = 0.075", "result": "45.9 ± 1.6", "unit": "mN/m"}, {"measurement": "surface tension liquid-gas", "setting": "m1 = 0.1", "result": "46.6 ± 1.6", "unit": "mN/m"}, {"measurement": "surface tension liquid-gas", "setting": "m1 = 0.125", "result": "46.5 ± 1.6", "unit": "mN/m"}, {"measurement": "surface tension liquid-gas", "setting": "m1 = 0.15", "result": "45.9 ± 1.6", "unit": "mN/m"}, {"measurement": "speed of sound", "setting": "m1 = 0.0079", "result": "1484.1 ± 1.2", "unit": "m/s"}, {"measurement": "speed of sound", "setting": "m1 = 0.00895", "result": "1484.3 ± 1.2", "unit": "m/s"}, {"measurement": "speed of sound", "setting": "m1 = 0.011", "result": "1484.7 ± 1.2", "unit": "m/s"}, {"measurement": "speed of sound", "setting": "m1 = 0.01547", "result": "1485.5 ± 1.3", "unit": "m/s"}, {"measurement": "speed of sound", "setting": "m1 = 0.02109", "result": "1486.4 ± 1.3", "unit": "m/s"}, {"measurement": "speed of sound", "setting": "m1 = 0.0286", "result": "1487.8 ± 1.3", "unit": "m/s"}, {"measurement": "speed of sound", "setting": "m1 = 0.03996", "result": "1489.8 ± 1.3", "unit": "m/s"}, {"measurement": "speed of sound", "setting": "m1 = 0.0492", "result": "1491.3 ± 1.3", "unit": "m/s"}, {"measurement": "speed of sound", "setting": "m1 = 0.06004", "result": "1493 ± 1.3", "unit": "m/s"}, {"measurement": "speed of sound", "setting": "m1 = 0.07991", "result": "1496.2 ± 1.4", "unit": "m/s"}, {"measurement": "speed of sound", "setting": "m1 = 0.09979", "result": "1498.3 ± 1.4", "unit": "m/s"}, {"measurement": "speed of sound", "setting": "m1 = 0.1248", "result": "1500.6 ± 1.4", "unit": "m/s"}, {"measurement": "speed of sound", "setting": "m1 = 0.1496", "result": "1502.9 ± 1.4", "unit": "m/s"}, {"measurement": "speed of sound", "setting": "m1 = 0.1737", "result": "1505.1 ± 1.5", "unit": "m/s"}, {"measurement": "speed of sound", "setting": "m1 = 0.1994", "result": "1507.3 ± 1.5", "unit": "m/s"}, {"measurement": "speed of sound", "setting": "m1 = 0.2245", "result": "1509.5 ± 1.6", "unit": "m/s"}, {"measurement": "speed of sound", "setting": "m1 = 0.2494", "result": "1511.7 ± 1.6", "unit": "m/s"}, {"measurement": "speed of sound", "setting": "m1 = 0.2749", "result": "1513.6 ± 1.6", "unit": "m/s"}, {"measurement": "speed of sound", "setting": "m1 = 0.2998", "result": "1515.8 ± 1.6", "unit": "m/s"}, {"measurement": "mass density", "setting": "m1 = 0.0079", "result": "999.369 ± 0.27", "unit": "kg/m3"}, {"measurement": "mass density", "setting": "m1 = 0.00895", "result": "999.513 ± 0.27", "unit": "kg/m3"}, {"measurement": "mass density", "setting": "m1 = 0.011", "result": "999.803 ± 0.28", "unit": "kg/m3"}, {"measurement": "mass density", "setting": "m1 = 0.01547", "result": "1000.45 ± 0.28", "unit": "kg/m3"}, {"measurement": "mass density", "setting": "m1 = 0.02109", "result": "1001.24 ± 0.28", "unit": "kg/m3"}, {"measurement": "mass density", "setting": "m1 = 0.0286", "result": "1002.31 ± 0.29", "unit": "kg/m3"}, {"measurement": "mass density", "setting": "m1 = 0.03996", "result": "1003.91 ± 0.3", "unit": "kg/m3"}, {"measurement": "mass density", "setting": "m1 = 0.0492", "result": "1005.18 ± 0.3", "unit": "kg/m3"}, {"measurement": "mass density", "setting": "m1 = 0.06004", "result": "1006.67 ± 0.31", "unit": "kg/m3"}, {"measurement": "mass density", "setting": "m1 = 0.07991", "result": "1009.39 ± 0.33", "unit": "kg/m3"}, {"measurement": "mass density", "setting": "m1 = 0.09979", "result": "1012.03 ± 0.34", "unit": "kg/m3"}, {"measurement": "mass density", "setting": "m1 = 0.1248", "result": "1015.25 ± 0.36", "unit": "kg/m3"}, {"measurement": "mass density", "setting": "m1 = 0.1496", "result": "1018.45 ± 0.38", "unit": "kg/m3"}, {"measurement": "mass density", "setting": "m1 = 0.1737", "result": "1021.45 ± 0.4", "unit": "kg/m3"}, {"measurement": "mass density", "setting": "m1 = 0.1994", "result": "1024.63 ± 0.43", "unit": "kg/m3"}, {"measurement": "mass density", "setting": "m1 = 0.2245", "result": "1027.65 ± 0.45", "unit": "kg/m3"}, {"measurement": "mass density", "setting": "m1 = 0.2494", "result": "1030.56 ± 0.47", "unit": "kg/m3"}, {"measurement": "mass density", "setting": "m1 = 0.2749", "result": "1033.52 ± 0.5", "unit": "kg/m3"}, {"measurement": "mass density", "setting": "m1 = 0.2998", "result": "1036.3 ± 0.52", "unit": "kg/m3"}]}, {"compound": "Cl.Cl.OCCN1CCN(CCCN2c3ccccc3Sc3ccc(C(F)(F)F)cc32)CC1", "note": "[fluphenazine dihydrochloride] + O", "values": [{"measurement": "surface tension liquid-gas", "setting": "m1 = 0.001", "result": "59.1 ± 2", "unit": "mN/m"}, {"measurement": "surface tension liquid-gas", "setting": "m1 = 0.002", "result": "57.9 ± 2", "unit": "mN/m"}, {"measurement": "surface tension liquid-gas", "setting": "m1 = 0.003", "result": "54.5 ± 1.9", "unit": "mN/m"}, {"measurement": "surface tension liquid-gas", "setting": "m1 = 0.004", "result": "51.1 ± 1.8", "unit": "mN/m"}, {"measurement": "surface tension liquid-gas", "setting": "m1 = 0.005", "result": "49 ± 1.7", "unit": "mN/m"}, {"measurement": "surface tension liquid-gas", "setting": "m1 = 0.006", "result": "49.9 ± 1.7", "unit": "mN/m"}, {"measurement": "surface tension liquid-gas", "setting": "m1 = 0.007", "result": "47.7 ± 1.6", "unit": "mN/m"}, {"measurement": "surface tension liquid-gas", "setting": "m1 = 0.008", "result": "45.9 ± 1.6", "unit": "mN/m"}, {"measurement": "surface tension liquid-gas", "setting": "m1 = 0.025", "result": "44.3 ± 1.5", "unit": "mN/m"}, {"measurement": "surface tension liquid-gas", "setting": "m1 = 0.04", "result": "44.6 ± 1.6", "unit": "mN/m"}, {"measurement": "surface tension liquid-gas", "setting": "m1 = 0.075", "result": "44 ± 1.5", "unit": "mN/m"}, {"measurement": "surface tension liquid-gas", "setting": "m1 = 0.1", "result": "44.5 ± 1.6", "unit": "mN/m"}, {"measurement": "surface tension liquid-gas", "setting": "m1 = 0.125", "result": "44.1 ± 1.5", "unit": "mN/m"}, {"measurement": "surface tension liquid-gas", "setting": "m1 = 0.15", "result": "44.6 ± 1.6", "unit": "mN/m"}, {"measurement": "speed of sound", "setting": "m1 = 0.00605", "result": "1484.1 ± 1.2", "unit": "m/s"}, {"measurement": "speed of sound", "setting": "m1 = 0.00716", "result": "1484.6 ± 1.2", "unit": "m/s"}, {"measurement": "speed of sound", "setting": "m1 = 0.00794", "result": "1484.8 ± 1.2", "unit": "m/s"}, {"measurement": "speed of sound", "setting": "m1 = 0.00898", "result": "1485.1 ± 1.2", "unit": "m/s"}, {"measurement": "speed of sound", "setting": "m1 = 0.01001", "result": "1485.3 ± 1.2", "unit": "m/s"}, {"measurement": "speed of sound", "setting": "m1 = 0.01999", "result": "1487.5 ± 1.3", "unit": "m/s"}, {"measurement": "speed of sound", "setting": "m1 = 0.02935", "result": "1489.3 ± 1.3", "unit": "m/s"}, {"measurement": "speed of sound", "setting": "m1 = 0.04", "result": "1491.5 ± 1.3", "unit": "m/s"}, {"measurement": "speed of sound", "setting": "m1 = 0.0506", "result": "1492.8 ± 1.3", "unit": "m/s"}, {"measurement": "speed of sound", "setting": "m1 = 0.05999", "result": "1494.4 ± 1.3", "unit": "m/s"}, {"measurement": "speed of sound", "setting": "m1 = 0.0803", "result": "1496.9 ± 1.4", "unit": "m/s"}, {"measurement": "speed of sound", "setting": "m1 = 0.1", "result": "1499 ± 1.4", "unit": "m/s"}, {"measurement": "speed of sound", "setting": "m1 = 0.1248", "result": "1501.5 ± 1.4", "unit": "m/s"}, {"measurement": "speed of sound", "setting": "m1 = 0.149", "result": "1503.8 ± 1.5", "unit": "m/s"}, {"measurement": "speed of sound", "setting": "m1 = 0.1752", "result": "1506.3 ± 1.5", "unit": "m/s"}, {"measurement": "mass density", "setting": "m1 = 0.00605", "result": "999.199 ± 0.28", "unit": "kg/m3"}, {"measurement": "mass density", "setting": "m1 = 0.00716", "result": "999.381 ± 0.29", "unit": "kg/m3"}, {"measurement": "mass density", "setting": "m1 = 0.00794", "result": "999.509 ± 0.29", "unit": "kg/m3"}, {"measurement": "mass density", "setting": "m1 = 0.00898", "result": "999.679 ± 0.29", "unit": "kg/m3"}, {"measurement": "mass density", "setting": "m1 = 0.01001", "result": "999.848 ± 0.29", "unit": "kg/m3"}, {"measurement": "mass density", "setting": "m1 = 0.01999", "result": "1001.44 ± 0.29", "unit": "kg/m3"}, {"measurement": "mass density", "setting": "m1 = 0.02935", "result": "1002.91 ± 0.3", "unit": "kg/m3"}, {"measurement": "mass density", "setting": "m1 = 0.04", "result": "1004.55 ± 0.31", "unit": "kg/m3"}, {"measurement": "mass density", "setting": "m1 = 0.0506", "result": "1006.17 ± 0.32", "unit": "kg/m3"}, {"measurement": "mass density", "setting": "m1 = 0.05999", "result": "1007.59 ± 0.32", "unit": "kg/m3"}, {"measurement": "mass density", "setting": "m1 = 0.0803", "result": "1010.64 ± 0.34", "unit": "kg/m3"}, {"measurement": "mass density", "setting": "m1 = 0.1", "result": "1013.53 ± 0.36", "unit": "kg/m3"}, {"measurement": "mass density", "setting": "m1 = 0.1248", "result": "1017.05 ± 0.38", "unit": "kg/m3"}, {"measurement": "mass density", "setting": "m1 = 0.149", "result": "1020.45 ± 0.4", "unit": "kg/m3"}, {"measurement": "mass density", "setting": "m1 = 0.1752", "result": "1023.98 ± 0.43", "unit": "kg/m3"}]}]}
